Experimental data reported in patent publication US8536199B2, “Oral combination of vitamins” (priority 2008, dated 2013).

System: pregnant women in first trimester (nausea and vomiting, morning sickness)
Assay: Treatment of morning sickness in pregnant women with chewable tablets (volunteer reports)
Type: in vivo, human
Details: volunteer 8, recalled from their first pregnancy
Description: A group of pregnant women were provided with the tablets, as prepared in Example 3, and were advised to take one to two tablets per day.

## Cc1ncc(CO)c(CO)c1O [vitamin B6, pyridoxine]
  Reported effect of vitamin B6 injections on nausea of pregnancy: did not feel helped
